In US20240050454A1, “Compositions and Methods For Treating Neurological Conditions” (WeSana Health Inc., priority 2020, published 2024):
Entries after “also recorded” stand apart in the source; their conditions may differ.

Columns and labels:
[1] = system: mice (BALB/c); assay: Tail suspension test (TST), psilocybin loading dose then psilocybin+CBD+6 MB maintenance
[2] = system: mice (BALB/c); assay: Elevated plus maze (EPM), anxiety-like behavior
[3] = psilocybin: loading dose 5 mg/kg alone, combination: given after the psilocybin loading dose

With “[3-(2-dimethylaminoethyl)-1H-indol-4-yl] dihydrogen phosphate [psilocybin]” the “immobile posture time in TST” value ([1]; Day 15, psilocybin loading dose 5 mg/kg on Day 1, FIG. 4A) was “decreased”, the “depression / depressive symptoms in mouse models” value [1, 3] was “decreased” and the “time spent immobile in TST” value ([1]; three weeks after 5 mg/kg loading dose of psilocybin (Day 22), loading dose only) was “significant decrease”. For the same substance, the “percentage of time spent in open space (open arms of the EPM)” value ([2]; Day 14, two weeks after psilocybin loading dose 5 mg/kg, vs vehicle control, FIG. 2, 5 mg/kg) was “significantly increased; also recorded: more time” and the “anxiety in mouse models” value [2, 3] was “decreased”.
